Experiments:
rape = assay: Test B pre/postemergence rape; format: in vivo, Brassica napus; settings: for Rape plant response rating: scale of 0 to 10 where 0 is no effect and 10 is complete control
Outline: (§1)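 Herbicidal effect was estimated by eye on a ten-point control scale after plants spent twelve to sixteen days in a greenhouse following soil or foliar treatment. Foliar sprays targeted plants at one to four leaves; all doses were formulated in a non-phytotoxic solvent with surfactant.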

bedstraw = assay: Test B pre/postemergence bedstraw; format: in vivo, Galium aparine
Outline: as §1

corn = assay: Test B pre/postemergence corn; format: in vivo, Zea mays; settings: for Corn plant response rating: scale of 0 to 10 where 0 is no effect and 10 is complete control
Outline: as §1

morningglory = assay: Test B pre/postemergence morningglory; format: in vivo, Ipomoea hederacea; settings: for Morningglory plant response rating: scale of 0 to 10 where 0 is no effect and 10 is complete control
Outline: as §1

wild oat = assay: Test B pre/postemergence wild oat; format: in vivo, Avena fatua; settings: for Wild oats plant response rating: scale of 0 to 10 where 0 is no effect and 10 is complete control
Outline: as §1

giant foxtail = assay: Test B pre/postemergence giant foxtail; format: in vivo, Setaria faberii; settings: for Giant foxtail plant response rating: scale of 0 to 10 where 0 is no effect and 10 is complete control
Outline: as §1

crabgrass = assay: Test B pre/postemergence crabgrass; format: in vivo, Digitaria sanguinalis; settings: for Crabgrass plant response rating: scale of 0 to 10 where 0 is no effect and 10 is complete control
Outline: as §1

rice = assay: Test B flood test rice; format: in vivo, Oryza sativa
Outline: (§2)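 Each value is a visual injury score relative to controls, with 10 meaning complete control and 0 no effect. Evaluation took place twelve to sixteen days after the 2-leaf-stage plants were treated and kept in the greenhouse.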

sugar beet = assay: Test B pre/postemergence sugar beet; format: in vivo, Beta vulgaris; settings: for Sugarbeets plant response rating: scale of 0 to 10 where 0 is no effect and 10 is complete control
Outline: as §1

blackgrass = assay: Test B pre/postemergence blackgrass; format: in vivo, Alopecurus myosuroides
Outline: as §1

cocklebur = assay: Test B pre/postemergence cocklebur; format: in vivo, Xanthium strumarium; settings: for Cocklebur plant response rating: scale of 0 to 10 where 0 is no effect and 10 is complete control
Outline: as §1

pigweed = assay: Test B pre/postemergence pigweed; format: in vivo, Amaranthus retroflexus; settings: for Redroot pigweed plant response rating: scale of 0 to 10 where 0 is no effect and 10 is complete control
Outline: as §1

bamyardgrass = assay: Test B flood test barnyardgrass; format: in vivo, Echinochloa crus-galli
Outline: as §2

surinam grass = assay: Test B pre/postemergence surinam grass; format: in vivo, Brachiaria decumbens
Outline: as §1

velvetleaf = assay: Test B pre/postemergence velvetleaf; format: in vivo, Abutilon theophrasti; settings: for Velvetleaf plant response rating: scale of 0 to 10 where 0 is no effect and 10 is complete control
Outline: as §1

smallflower flatsedge = assay: Test B flood test smallflower flatsedge; format: in vivo, Cyperus difformis
Outline: as §2

[1] = Postemergence, Rate 125 g/ha, scale 0 to 10, 0 is no effect, 10 is complete control
[2] = Rate 500 g/ha, Postemergence, scale 0 to 10, 0 no effect, 10 complete control
[3] = Preemergence, Rate 62 g/ha, scale of 0 to 10 where 0 is no effect and 10 is complete control
[4] = Preemergence, Rate 500 g/ha, scale of 0 to 10 where 0 is no effect and 10 is complete control
[5] = Rate 62 g/ha, Postemergence, scale of 0 to 10 where 0 is no effect and 10 is complete control
[6] = Rate 250 g/ha, Postemergence, scale of 0 to 10 where 0 is no effect and 10 is complete control
[7] = Rate 62 g/ha, headed Pre-emergence (flood test species), scale 0 to 10 (0 no effect, 10 complete control)
[8] = Rate 125 g/ha, Pre-emergence, flood test species, scale 0 to 10 where 0 is no effect and 10 is complete control
[9] = Rate 250 g/ha, Pre-emergence, flood-test species, scale 0 to 10, 0 is no effect, 10 is complete control
[10] = Rate 500 g/ha, Pre-emergence, flood test species, scale 0 to 10 (0 no effect, 10 complete control)
[11] = Preemergence, Rate 250 g/ha, scale of 0 to 10 where 0 is no effect and 10 is complete control

CC(C)N(C(=O)n1oc(=O)n(C2CCCCCC2)c1=O)c1ccc(F)cc1 [Compound 340]
Plant response rating, Rape (rape; [1]): 2
Rape plant response rating (rape; Preemergence, Rate 62 g/ha): 0
Rape plant response rating (0 to 10 scale) (rape; Preemergence, Rate 125 g/ha): 0
Rape plant response rating (rape; Preemergence, Rate 250 g/ha): 0
Rape plant response rating (rape; Preemergence, Rate 500 g/ha): 0
Rape plant response rating (rape; Rate 62 g/ha, Postemergence): 2
Plant response rating, Rape (rape; [2]): 6
Plant response rating, Bedstraw (bedstraw; [1]): 7
Bedstraw plant response rating (bedstraw; [3]): 0
Bedstraw plant response rating (0 to 10 scale) (bedstraw; Preemergence, Rate 125 g/ha): 0
Bedstraw plant response rating (bedstraw; [4]): 5
Bedstraw plant response rating (bedstraw; [5]): 3
Plant response rating, Bedstraw (bedstraw; [6]): 7
Plant response rating, Bedstraw (bedstraw; [2]): 8
Plant response rating, Corn (corn; [1]): 0
Corn plant response rating (corn; Preemergence, Rate 62 g/ha): 0
Corn plant response rating (0 to 10 scale) (corn; Preemergence, Rate 125 g/ha): 0
Corn plant response rating (corn; Preemergence, Rate 250 g/ha): 0
Corn plant response rating (corn; Preemergence, Rate 500 g/ha): 0
Corn plant response rating (corn; Rate 62 g/ha, Postemergence): 0
Plant response rating, Corn (corn; [2]): 0
Plant response rating, Morningglory (morningglory; [1]): 7
Morningglory plant response rating (morningglory; Preemergence, Rate 62 g/ha): 0
Morningglory plant response rating (0 to 10 scale) (morningglory; Preemergence, Rate 125 g/ha): 0
Morningglory plant response rating (morningglory; Preemergence, Rate 250 g/ha): 0
Morningglory plant response rating (morningglory; Preemergence, Rate 500 g/ha): 0
Morningglory plant response rating (morningglory; Rate 62 g/ha, Postemergence): 2
Plant response rating, Morningglory (morningglory; [2]): 10
Plant response rating, Wild oats (wild oat; [1]): 0
Wild oats plant response rating (wild oat; Preemergence, Rate 62 g/ha): 0
Wild oats plant response rating (0 to 10 scale) (wild oat; Preemergence, Rate 125 g/ha): 0
Wild oats plant response rating (wild oat; Preemergence, Rate 250 g/ha): 2
Wild oats plant response rating (wild oat; Preemergence, Rate 500 g/ha): 3
Wild oats plant response rating (wild oat; Rate 62 g/ha, Postemergence): 0
Plant response rating, Wild oats (wild oat; [2]): 0
Plant response rating, Giant foxtail (giant foxtail; [1]): 0
Giant foxtail plant response rating (giant foxtail; Preemergence, Rate 62 g/ha): 8
Giant foxtail plant response rating (0 to 10 scale) (giant foxtail; Preemergence, Rate 125 g/ha): 10
Giant foxtail plant response rating (giant foxtail; Preemergence, Rate 250 g/ha): 10
Giant foxtail plant response rating (giant foxtail; Preemergence, Rate 500 g/ha): 10
Giant foxtail plant response rating (giant foxtail; Rate 62 g/ha, Postemergence): 0
Plant response rating, Giant foxtail (giant foxtail; [2]): 6
Plant response rating, Crabgrass (crabgrass; [1]): 0
Crabgrass plant response rating (crabgrass; Preemergence, Rate 62 g/ha): 0
Crabgrass plant response rating (0 to 10 scale) (crabgrass; Preemergence, Rate 125 g/ha): 3
Crabgrass plant response rating (crabgrass; Preemergence, Rate 250 g/ha): 8
Crabgrass plant response rating (crabgrass; Preemergence, Rate 500 g/ha): 9
Crabgrass plant response rating (crabgrass; Rate 62 g/ha, Postemergence): 0
Plant response rating, Crabgrass (crabgrass; [2]): 2
Rice plant response rating (rice; [7]): 0
Rice plant response rating (rice; [8]): 0
Rice plant response rating (rice; [9]): 0
Rice plant response rating (rice; [10]): 0
Plant response rating, Sugarbeets (sugar beet; [1]): 2
Sugarbeets plant response rating (sugar beet; Preemergence, Rate 62 g/ha): 0
Sugarbeets plant response rating (0 to 10 scale) (sugar beet; Preemergence, Rate 125 g/ha): 0
Sugarbeets plant response rating (sugar beet; Preemergence, Rate 250 g/ha): 0
Sugarbeets plant response rating (sugar beet; Preemergence, Rate 500 g/ha): 0
Sugarbeets plant response rating (sugar beet; Rate 62 g/ha, Postemergence): 0
Plant response rating, Sugarbeets (sugar beet; [2]): 6
Plant response rating, Blackgrass (blackgrass; [1]): 0
Blackgrass plant response rating (blackgrass; [3]): 0
Blackgrass plant response rating (0 to 10 scale) (blackgrass; Preemergence, Rate 125 g/ha): 2
Blackgrass plant response rating (blackgrass; [11]): 3
Blackgrass plant response rating (blackgrass; [4]): 8
Blackgrass plant response rating (blackgrass; [5]): 0
Plant response rating, Blackgrass (blackgrass; [6]): 3
Plant response rating, Blackgrass (blackgrass; [2]): 8
Plant response rating, Cocklebur (cocklebur; [1]): 0
Cocklebur plant response rating (cocklebur; Preemergence, Rate 62 g/ha): 0
Cocklebur plant response rating (0 to 10 scale) (cocklebur; Preemergence, Rate 125 g/ha): 0
Cocklebur plant response rating (cocklebur; Preemergence, Rate 250 g/ha): 0
Cocklebur plant response rating (cocklebur; Preemergence, Rate 500 g/ha): 0
Cocklebur plant response rating (cocklebur; Rate 62 g/ha, Postemergence): 0
Plant response rating, Cocklebur (cocklebur; [2]): 0
Plant response rating, Redroot pigweed (pigweed; [1]): 4
Redroot pigweed plant response rating (pigweed; Preemergence, Rate 62 g/ha): 0
Redroot pigweed plant response rating (0 to 10 scale) (pigweed; Preemergence, Rate 125 g/ha): 0
Redroot pigweed plant response rating (pigweed; Preemergence, Rate 250 g/ha): 3
Redroot pigweed plant response rating (pigweed; Preemergence, Rate 500 g/ha): 4
Redroot pigweed plant response rating (pigweed; Rate 62 g/ha, Postemergence): 2
Barnyardgrass plant response rating (bamyardgrass; [7]): 7
Barnyardgrass plant response rating (bamyardgrass; [8]): 6
Barnyardgrass plant response rating (bamyardgrass; [9]): 10
Barnyardgrass plant response rating (bamyardgrass; [10]): 9
Plant response rating, B. signalgrass (surinam grass; [1]): 0
B. signalgrass plant response rating (surinam grass; [3]): 0
B. signalgrass plant response rating (0 to 10 scale, 0 is no effect, 10 is complete control) (surinam grass; Preemergence, Rate 125 g/ha): 0
B. signalgrass plant response rating (surinam grass; [11]): 1
B. signalgrass plant response rating (surinam grass; [4]): 2
B. signalgrass plant response rating (surinam grass; [5]): 0
Plant response rating, B. signalgrass (surinam grass; [6]): 0
Plant response rating, B. signalgrass (surinam grass; [2]): 0
Plant response rating, Velvetleaf (velvetleaf; [1]): 0
Velvetleaf plant response rating (velvetleaf; Preemergence, Rate 62 g/ha): 0
Velvetleaf plant response rating (0 to 10 scale) (velvetleaf; Preemergence, Rate 125 g/ha): 0
Velvetleaf plant response rating (velvetleaf; Preemergence, Rate 250 g/ha): 0
Velvetleaf plant response rating (velvetleaf; Preemergence, Rate 500 g/ha): 2
Velvetleaf plant response rating (velvetleaf; Rate 62 g/ha, Postemergence): 0
Plant response rating, Velvetleaf (velvetleaf; [2]): 3
S. Flatsedge plant response rating (smallflower flatsedge; [7]): 0
S. Flatsedge plant response rating (smallflower flatsedge; [8]): 0
S. Flatsedge plant response rating (smallflower flatsedge; [9]): 2
S. Flatsedge plant response rating (smallflower flatsedge; [10]): 9
